In article PMC9579956 (RSC Medicinal Chemistry, 2022):
Where “and” joins values, the source holds several entries; their conditions need not be identical. Equal values may be shown once. Read-outs that look alike come from different tables or passages of the source.

What was measured:
[1] = target: T1, Mycobacterium thermoresistible (Mtr) LpqY (Mycolicibacterium thermoresistibile, UniProt G7CES0); type: binding; conditions: for Screen signal/noise ratio (MST S/N): compound 100 μM, LpqY 500 nM, 10% DMSO, duplicate; for Pathogen Box screen signal/noise ratio: single dose MST screen against LpqY
T1 sequence (G7CES0 29-471): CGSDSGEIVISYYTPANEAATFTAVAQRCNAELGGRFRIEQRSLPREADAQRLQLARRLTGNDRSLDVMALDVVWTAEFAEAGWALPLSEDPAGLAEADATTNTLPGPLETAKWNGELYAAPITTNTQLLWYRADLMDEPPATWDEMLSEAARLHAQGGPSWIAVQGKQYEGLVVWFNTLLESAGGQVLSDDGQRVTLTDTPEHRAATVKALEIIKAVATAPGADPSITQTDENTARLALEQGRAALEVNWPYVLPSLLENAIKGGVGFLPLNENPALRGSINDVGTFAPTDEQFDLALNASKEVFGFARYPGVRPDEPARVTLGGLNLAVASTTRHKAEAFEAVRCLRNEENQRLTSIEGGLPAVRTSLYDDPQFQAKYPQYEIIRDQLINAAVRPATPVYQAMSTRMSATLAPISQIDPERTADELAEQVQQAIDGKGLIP

[2] = target: T1, Mycobacterium thermoresistible (Mtr) LpqY; type: binding; conditions: for Hit validation Binding score: MST re-evaluation of hits against LpqY; for Validation binding score (MST): quadruplicate, new batch of LpqY
[3] = target: T1, Mycobacterium thermoresistible (Mtr) LpqY; assay: Affinity studies with microscale thermophoresis (MST); type: binding; conditions: for Binding to LpqY (qualitative): Kd could not be determined
[4] = Solubility in aqueous buffer (observation in MST affinity assay); type: physicochemical
From the text: The top five hits that were commercially available were selected for further characterisation and the binding affinities determined with LpqY (Fig. 4, Table S2 ^†).

| Compound | Screen signal/noise ratio (MST S/N) [1] | Pathogen Box screen signal/noise ratio [1] | Hit validation Binding score [2] | Validation binding score (MST) [2] | other results |
| --- | --- | --- | --- | --- | --- |
| COc1ccccc1OCCCCn1c(C2CC2)nc2ccccc21 [MMV676474, 2-cyclopropyl-1-[4-(2-methoxyphenoxy)butyl]benzimidazole] | 6.0 | 6.0 | 6.2 | 6.2 and > 5 | – |
| CC(=O)Oc1ccccc1C(=O)Nc1ncc([N+](=O)[O-])s1 [MMV688991, Nitazoxanide, reference compound] | 8.3 | 8.3 | 20.0 | – | Kd [3]: 85.4 µM; fold decrease in affinity compared to trehalose ([3]; MST): ~2 fold |
| COc1ccc(N(CCc2cccc(C)n2)C(=O)C2CCCCC2)cc1 [MMV675996, N-(4-methoxyphenyl)-N-[2-(6-methylpyridin-2-yl)ethyl]cyclohexanecarboxamide] | 6.0 | 6.0 | 4.9 | 4.9 | – |
| COc1cc(NC(C)CCCN)c2ncccc2c1 (centres unmarked) [MMV000023, Primaquine, reference compound] | 10.0 | 10.0 | 21.6 | 21.6 | Binding to LpqY (qualitative) ([3]; MST): Concentration dependent binding |
| COc1ccc(OC(C)C(=O)Nc2ccc(Cl)cc2C)cc1 (centres unmarked) [MMV202458, N-(4-chloro-2-methylphenyl)-2-(4-methoxyphenoxy)propanamide] | 5.5 | 5.5 | 6.3 | 6.3 and > 5 | – |
| C[C@H]1c2cccc(O)c2C(=O)C2=C(O)[C@]3(O)C(=O)C(C(N)=O)=C(O)[C@@H](N(C)C)[C@@H]3[C@@H](O)[C@@H]21 [MMV000011, Doxycycline, reference compound] | 5.8 | 5.8 | 6.5 | 6.5 | Validation binding score (MST) ([2]; listed as doxycycline): > 5 |
| CC1(C)OB(O)c2ccc(C3=NOC(c4cc(Cl)c(F)c(Cl)c4)(C(F)(F)F)C3)cc21 (centres unmarked) [MMV687775, 5-(3,5-dichloro-4-fluorophenyl)-3-(1-hydroxy-3,3-dimethyl-2,1-benzoxaborol-5-yl)-5-(trifluoromethyl)-4H-1,2-oxazole] | 6.6 | 6.6 | 3.9 | 3.9 | – |
| O=C(Nc1cccc(Cl)c1)c1cnc(N2CCN(c3ccncc3)CC2)c(Cl)c1 [MMV024406, 5-chloro-N-(3-chlorophenyl)-6-(4-pyridin-4-ylpiperazin-1-yl)pyridine-3-carboxamide] | 5.2 | 5.2 | 2.3 | 2.3 | – |
| COc1ccccc1C(C)NCC(=O)Nc1cc(C(F)(F)F)ccc1Cl (centres unmarked) [MMV020321, N-[2-chloro-5-(trifluoromethyl)phenyl]-2-[1-(2-methoxyphenyl)ethylamino]acetamide] | 5.5 | 5.5 | 1.9 | 1.9 | – |
| O=C(NCCc1c[nH]c2ccccc12)c1cc2ccccc2oc1=O [MMV676539, N-[2-(1H-indol-3-yl)ethyl]-2-oxochromene-3-carboxamide] | 6.2 | 6.2 | 6.4 | 6.4 and > 5 | – |
| COc1cc(C2=NCCN2)cc2cc(-c3ccc(C4=NCCN4)cc3)oc12 [MMV688362, 2-[4-[5-(4,5-dihydro-1H-imidazol-2-yl)-7-methoxy-1-benzofuran-2-yl]phenyl]-4,5-dihydro-1H-imidazole] | 12.6 | 12.6 | 14.8 | – | – |
| CS(=O)(=O)c1ccccc1C(=O)N(Cc1ccccc1)c1ccccc1 [MMV688798, N-benzyl-2-methylsulfonyl-N-phenylbenzamide] | 5.2 | 5.2 | 1.3 | 1.3 | – |
| Nc1cccnc1Nc1ccc(Cl)cc1 [MMV676524, 2-N-(4-chlorophenyl)pyridine-2,3-diamine] | 6.4 | 6.4 | 12.2 | – | Binding to LpqY (qualitative) ([3]; MST): Concentration dependent binding; Solubility in aqueous buffer [4]: poor solubility |
| CCOC(=O)NC(=O)c1ccsc1NC(=O)c1nc2ccccc2s1 [MMV090930, TCA1, reference compound] | 29.5 | 29.5 | 91.5 | > 5 | Kd [3]: 14.2 ± 0.8 µM; fold increase of affinity (Kd) compared to trehalose ([3]; MST): ~2.5 fold |
| CNC(=O)C1Cc2c([nH]c3cc(Cl)ccc23)C2(CCN(CCc3ccccc3)CC2)N1 (centres unmarked) [MMV031011, 7-chloro-N-methyl-1'-(2-phenylethyl)spiro[2,3,4,9-tetrahydropyrido[3,4-b]indole-1,4'-piperidine]-3-carboxamide] | 5.7 | 5.7 | 3.7 | 3.7 | – |
| OC[C@H]1O[C@H](O[C@H]2O[C@H](CO)[C@@H](O)[C@H](O)[C@H]2O)[C@H](O)[C@@H](O)[C@@H]1O [Trehalose, α-D-glucopyranosyl-α-D-glucopyranoside, reference compound] | – | – | 8.3 | 8.3 | – |
| Cc1ccc2[nH]c3c(NCCN(C)C)ncnc3c2c1 [MMV006372] | – | 0.333 | – | – | – |
| Nc1ncnc2c1c(-c1cnc3ccccc3c1)nn2CC1CCNCC1 [MMV688411] | – | 2.1 | – | – | – |
| COc1ccc(CCN2CCC(NCc3cccc(N(C)C)c3)CC2)cc1 [MMV011511] | – | 0.8 | – | – | – |
| COc1ccc(-c2cc(NC(=O)c3ccc(F)cc3Cl)ccc2OC)cc1 [MMV676526] | – | 0.556 | – | – | – |
| COC(=O)C1=C(C)NC(C)=C(C(=O)OC(C)C)C1c1cccc2nonc12 (centres unmarked) [MMV001493] | – | 1.1 | – | – | – |
| CNC(=O)c1nn(C)c2c1C(C)(C)Cc1cnc(Nc3ccc(N4CCN(C)CC4)cc3)nc1-2 [MMV676602, Milciclib, reference compound] | 9.5 | 9.5 | 13.6 | > 12 | Binding to LpqY (qualitative) ([3]; MST): Concentration dependent binding; Solubility in aqueous buffer [4]: poor solubility |
| CCCS(=O)(=O)N1CCC(CO)(Cc2ccccc2C(F)(F)F)CC1 [MMV001059] | – | 0.0926 | – | – | – |
| CCC(=O)Nc1ccccc1C(=O)Nc1ccccn1 [MMV202553] | – | 1.4 | – | – | – |
| CS(=O)(=O)Cc1nc2ccccc2oc1=O [MMV553002] | – | 3.2 | – | – | – |
| Cc1cc(C)nc(-n2nc(C)cc2Nc2ccccc2)n1 [MMV062221] | – | 0.8 | – | – | – |
| Cc1nn2c(=O)c3c([nH]c2c1-c1ccc(Cl)cc1)CCCC3 [MMV688776] | – | 1.5 | – | – | – |
